Laboratory results reported in the supplement of paper PMC8617591.

How the values were obtained:
[1] = tested on: Mycobacterium tuberculosis Erdman (autoluminescent); assay: total FIC50 (Loewe) at 50% inhibition, three-drug combination (log2); higher = more antagonistic
Description: (§1)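 DiaMOND equipotent three-drug combination dose responses (10 doses, 1.5- or 2-fold spacing, centred on IC90) against autoluminescent M. tuberculosis Erdman in 8 in vitro models. Read-out is OD600, or luminescence for the intracellular and dormancy models, normalised to untreated wells. Hill-fit Einf, AUC25 and GRinf are potency metrics; FIC50 and FIC90 are total Loewe fractional inhibitory concentrations as log2 (negative = synergy).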

[2] = tested on: Mycobacterium tuberculosis Erdman (autoluminescent); assay: total FIC90 (Loewe) at 90% inhibition, three-drug combination (log2); higher = more antagonistic
Description: as §1

[3] = tested on: Mycobacterium tuberculosis Erdman (autoluminescent); assay: AUC25, normalised area under dose response up to IC25 (three-drug combination) (fraction (0-1)); higher = more potent at low dose
Description: as §1

[4] = tested on: Mycobacterium tuberculosis Erdman (autoluminescent); assay: Einf, fitted maximum growth inhibition of three-drug combination (fraction); higher = stronger maximal inhibition
Description: as §1

[5] = tested on: Mycobacterium tuberculosis Erdman (autoluminescent); assay: GRinf, maximum normalised growth rate inhibition (three-drug combination) (unitless (-1 to 1)); higher = less effect (negative = killing)
Description: as §1

CC(C)/N=c1\cc2n(-c3ccc(Cl)cc3)c3ccccc3nc-2cc1Nc1ccc(Cl)cc1 [clofazimine] + O=[N+]([O-])c1cn2c(n1)OC[C@@H](OCc1ccc(OC(F)(F)F)cc1)C2 [pretomanid] + CO[C@H]1/C=C/O[C@@]2(C)Oc3c(C)c(O)c4c(O)c(c(/C=N/N5CCN(C6CCCC6)CC5)c(O)c4c3C2=O)NC(=O)/C(C)=C\C=C\[C@H](C)[C@H](O)[C@@H](C)[C@@H](O)[C@@H](C)[C@H](OC(C)=O)[C@@H]1C [rifapentine]
Details | AUC25, [3] | Einf, [4] | GRinf, [5] | total FIC50, [1] | total FIC90, [2]
in vitro model: acidic pH 5.7, time point: constant (~7 days, model-specific) | 0.103 | 0.899 | -0.186 | 0.105 | –
in vitro model: acidic pH 5.7, time point: terminal (~4-5 doublings, model-specific) | 0.0882 | 0.993 | -0.236 | 0.264 | 0.423
in vitro model: intracellular J774, time point: constant = terminal | – | 0.989 | -0.655 | – | -0.198

Details | AUC25, [3] | Einf, [4] | GRinf, [5] | total FIC50, [1] | total FIC90, [2]
in vitro model: butyrate, time point: constant (~7 days, model-specific) | 0.108 | 0.944 | -0.17 | 0.542 | 0.896
in vitro model: butyrate, time point: terminal (~4-5 doublings, model-specific) | 0.0902 | 0.978 | -0.146 | 0.502 | 0.795
in vitro model: cholesterol 0.05 mM, time point: constant (~7 days, model-specific) | 0.125 | 0.719 | -0.154 | 1.34 | –
in vitro model: cholesterol 0.05 mM, time point: terminal (~4-5 doublings, model-specific) | 0.1 | 0.913 | -0.114 | 1.34 | 1.38
in vitro model: cholesterol-high 0.2 mM, time point: constant (~7 days, model-specific) | 0.101 | 0.93 | -0.434 | 1.29 | 2.04
in vitro model: cholesterol-high 0.2 mM, time point: terminal (~4-5 doublings, model-specific) | 0.104 | 1 | -0.886 | 1.49 | 1.76
in vitro model: dormancy (butyrate + nitrate, low O2), time point: constant (~7 days, model-specific) | 0.0611 | 0.948 | -0.0911 | 0.0191 | -1.71
in vitro model: dormancy (butyrate + nitrate, low O2), time point: terminal (~4-5 doublings, model-specific) | 0.0501 | 0.997 | -0.374 | -0.0775 | -0.279
in vitro model: standard 7H9 glycerol, time point: constant = terminal | 0.12 | 0.954 | -0.0887 | -0.289 | 1.7
in vitro model: valerate, time point: constant (~7 days, model-specific) | 0.155 | 0.893 | -0.158 | 1.22 | –
in vitro model: valerate, time point: terminal (~4-5 doublings, model-specific) | 0.106 | 0.953 | 0.0119 | 0.552 | 1.7
